Results from ChEMBL document CHEMBL5518248, “Design, Synthesis, and Biological Evaluation of Novel Arylomycins against Multidrug-Resistant Gram-Negative Bacteria” (J Med Chem, 2024).

Experiments:
Assay type in all cases: functional
Conditions in all cases: time 18-20 hrs
Escherichia coli [1] = test: Antibacterial activity against Escherichia coli 14-2 assessed as inhibition of bacterial growth measured after 18 to 20 hrs by broth microdilution method
Acinetobacter baumannii [2] = test: Antibacterial activity against Acinetobacter baumannii 17-2 assessed as inhibition of bacterial growth measured after 18 to 20 hrs by broth microdilution method
Escherichia coli [3] = test: Antibacterial activity against Escherichia coli 14-4 assessed as inhibition of bacterial growth measured after 18 to 20 hrs by broth microdilution method
Klebsiella pneumoniae [4] = test: Antibacterial activity against Klebsiella pneumoniae 15-1 assessed as inhibition of bacterial growth measured after 18 to 20 hrs by broth microdilution method
Klebsiella pneumoniae [5] = test: Antibacterial activity against Klebsiella pneumoniae 15-4 assessed as inhibition of bacterial growth measured after 18 to 20 hrs by broth microdilution method
Acinetobacter baumannii [6] = test: Antibacterial activity against Acinetobacter baumannii 17-8 assessed as inhibition of bacterial growth measured after 18 to 20 hrs by broth microdilution method
Escherichia coli [7] = test: Antibacterial activity against Escherichia coli ATCC 35218 assessed as inhibition of bacterial growth measured after 18 to 20 hrs by broth microdilution method
Pseudomonas aeruginosa [8] = test: Antibacterial activity against Pseudomonas aeruginosa 19-5 assessed as inhibition of bacterial growth measured after 18 to 20 hrs by broth microdilution method
Pseudomonas aeruginosa [9] = test: Antibacterial activity against Pseudomonas aeruginosa 17-1 assessed as inhibition of bacterial growth measured after 18 to 20 hrs by broth microdilution method
Klebsiella pneumoniae [10] = test: Antibacterial activity against Klebsiella pneumoniae 15-5 assessed as inhibition of bacterial growth measured after 18 to 20 hrs by broth microdilution method

Cc1nc(-c2ccc(SC(C)(C)C)cc2)ncc1C(=O)N[C@@H](CCN)C(=O)N(C)[C@@H]1C(=O)N[C@@H](C)C(=O)N[C@H](C(=O)NCC#N)Cc2ccc(OCCN)c(c2)-c2cc1ccc2OCCN.O=C(O)C(F)(F)F.O=C(O)C(F)(F)F.O=C(O)C(F)(F)F.O=C(O)C(F)(F)F
MIC (Escherichia coli [1]): 0.125 µg/mL
MIC (Acinetobacter baumannii [2]): 2 µg/mL
MIC (Escherichia coli [3]): 0.06 µg/mL
MIC (Klebsiella pneumoniae [4]): 0.06 µg/mL
MIC (Klebsiella pneumoniae [5]): 0.125 µg/mL
MIC (Acinetobacter baumannii [6]): 1 µg/mL
MIC (Escherichia coli [7]): ≤ 0.03 µg/mL
MIC (Pseudomonas aeruginosa [8]): 16 µg/mL
MIC (Pseudomonas aeruginosa [9]): 16 µg/mL
MIC (Klebsiella pneumoniae [10]): 0.06 µg/mL

CSSc1ccc(-c2ncc(C(=O)N[C@@H](CCN)C(=O)N(C)[C@@H]3C(=O)N[C@@H](C)C(=O)N[C@H](C(=O)NCC#N)Cc4ccc(OCCN)c(c4)-c4cc3ccc4OCCN)c(C)n2)cc1.O=C(O)C(F)(F)F.O=C(O)C(F)(F)F.O=C(O)C(F)(F)F.O=C(O)C(F)(F)F
MIC (Escherichia coli [1]): 0.5 µg/mL
MIC (Acinetobacter baumannii [2]): 4 µg/mL
MIC (Escherichia coli [3]): 0.5 µg/mL
MIC (Klebsiella pneumoniae [4]): 0.5 µg/mL
MIC (Klebsiella pneumoniae [5]): 1 µg/mL
MIC (Acinetobacter baumannii [6]): 2 µg/mL
MIC (Escherichia coli [7]): 0.25 µg/mL
MIC (Pseudomonas aeruginosa [8]): 16 µg/mL
MIC (Pseudomonas aeruginosa [9]): 16 µg/mL
MIC (Klebsiella pneumoniae [10]): 1 µg/mL

CCCCSSc1ccc(-c2ncc(C(=O)N[C@@H](CCN)C(=O)N(C)[C@@H]3C(=O)N[C@@H](C)C(=O)N[C@H](C(=O)NCC#N)Cc4ccc(OCCN)c(c4)-c4cc3ccc4OCCN)c(C)n2)cc1.O=C(O)C(F)(F)F.O=C(O)C(F)(F)F.O=C(O)C(F)(F)F.O=C(O)C(F)(F)F
MIC (Escherichia coli [1]): 0.06 µg/mL
MIC (Acinetobacter baumannii [2]): 0.5 µg/mL
MIC (Escherichia coli [3]): 0.125 µg/mL
MIC (Klebsiella pneumoniae [4]): 0.25 µg/mL
MIC (Klebsiella pneumoniae [5]): 0.25 µg/mL
MIC (Acinetobacter baumannii [6]): 0.25 µg/mL
MIC (Escherichia coli [7]): ≤ 0.03 µg/mL
MIC (Pseudomonas aeruginosa [8]): 4 µg/mL
MIC (Pseudomonas aeruginosa [9]): 2 µg/mL
MIC (Klebsiella pneumoniae [10]): 0.125 µg/mL

Cc1nc(-c2ccc(CSSC3CCC3)cc2)ncc1C(=O)N[C@@H](CCN)C(=O)N(C)[C@@H]1C(=O)N[C@@H](C)C(=O)N[C@H](C(=O)NCC#N)Cc2ccc(OCCN)c(c2)-c2cc1ccc2OCCN.O=C(O)C(F)(F)F.O=C(O)C(F)(F)F.O=C(O)C(F)(F)F.O=C(O)C(F)(F)F
MIC (Escherichia coli [1]): 0.125 µg/mL
MIC (Acinetobacter baumannii [2]): 1 µg/mL
MIC (Escherichia coli [3]): 0.125 µg/mL
MIC (Klebsiella pneumoniae [4]): 0.125 µg/mL
MIC (Klebsiella pneumoniae [5]): 0.25 µg/mL
MIC (Acinetobacter baumannii [6]): 0.5 µg/mL
MIC (Escherichia coli [7]): ≤ 0.03 µg/mL
MIC (Pseudomonas aeruginosa [8]): 4 µg/mL
MIC (Pseudomonas aeruginosa [9]): 8 µg/mL
MIC (Klebsiella pneumoniae [10]): 0.25 µg/mL

CCSSCc1ccc(-c2ncc(C(=O)N[C@@H](CCN)C(=O)N(C)[C@@H]3C(=O)N[C@@H](C)C(=O)N[C@H](C(=O)NCC#N)Cc4ccc(OCCN)c(c4)-c4cc3ccc4OCCN)c(C)n2)cc1.O=C(O)C(F)(F)F.O=C(O)C(F)(F)F.O=C(O)C(F)(F)F.O=C(O)C(F)(F)F
MIC (Escherichia coli [1]): 0.06 µg/mL
MIC (Acinetobacter baumannii [2]): 1 µg/mL
MIC (Escherichia coli [3]): ≤ 0.03 µg/mL
MIC (Klebsiella pneumoniae [4]): 0.06 µg/mL
MIC (Klebsiella pneumoniae [5]): 0.125 µg/mL
MIC (Acinetobacter baumannii [6]): 0.5 µg/mL
MIC (Escherichia coli [7]): ≤ 0.03 µg/mL
MIC (Pseudomonas aeruginosa [8]): 16 µg/mL
MIC (Pseudomonas aeruginosa [9]): 8 µg/mL
MIC (Klebsiella pneumoniae [10]): 0.125 µg/mL

Cc1nc(-c2ccc([C@@H](C)SSC(C)(C)C)cc2)ncc1C(=O)N[C@@H](CCN)C(=O)N(C)[C@@H]1C(=O)N[C@@H](C)C(=O)N[C@H](C(=O)NCC#N)Cc2ccc(OCCN)c(c2)-c2cc1ccc2OCCN.O=C(O)C(F)(F)F.O=C(O)C(F)(F)F.O=C(O)C(F)(F)F.O=C(O)C(F)(F)F
MIC (Escherichia coli [1]): ≤ 0.03 µg/mL
MIC (Acinetobacter baumannii [2]): 0.5 µg/mL
MIC (Escherichia coli [3]): ≤ 0.03 µg/mL
MIC (Klebsiella pneumoniae [4]): 0.25 µg/mL
MIC (Klebsiella pneumoniae [5]): 0.25 µg/mL
MIC (Acinetobacter baumannii [6]): 0.5 µg/mL
MIC (Escherichia coli [7]): ≤ 0.03 µg/mL
MIC (Pseudomonas aeruginosa [8]): 4 µg/mL
MIC (Pseudomonas aeruginosa [9]): 4 µg/mL
MIC (Klebsiella pneumoniae [10]): 0.125 µg/mL

Cc1nc(-c2ccc(CSSC(C)(C)C)cc2)nc(C)c1C(=O)N[C@@H](CCN)C(=O)N(C)[C@@H]1C(=O)N[C@@H](C)C(=O)N[C@H](C(=O)NCC#N)Cc2ccc(OCCN)c(c2)-c2cc1ccc2OCCN.O=C(O)C(F)(F)F.O=C(O)C(F)(F)F.O=C(O)C(F)(F)F.O=C(O)C(F)(F)F
MIC (Escherichia coli [1]): 0.06 µg/mL
MIC (Acinetobacter baumannii [2]): 0.5 µg/mL
MIC (Escherichia coli [3]): 0.06 µg/mL
MIC (Klebsiella pneumoniae [4]): 0.125 µg/mL
MIC (Klebsiella pneumoniae [5]): 0.125 µg/mL
MIC (Acinetobacter baumannii [6]): 0.5 µg/mL
MIC (Escherichia coli [7]): ≤ 0.03 µg/mL
MIC (Pseudomonas aeruginosa [8]): 4 µg/mL
MIC (Pseudomonas aeruginosa [9]): 4 µg/mL
MIC (Klebsiella pneumoniae [10]): 0.125 µg/mL

Cc1nc(-c2ccc(C(C)(C)C)cc2)ncc1C(=O)N[C@@H](CCN)C(=O)N(C)[C@@H]1C(=O)N[C@@H](C)C(=O)N[C@H](C(=O)NCP(=O)(O)O)Cc2ccc(OCCN)c(c2)-c2cc1ccc2OCCN.Cl.Cl.Cl.Cl
MIC (Escherichia coli [1]): 1 µg/mL
MIC (Acinetobacter baumannii [2]): 8 µg/mL
MIC (Escherichia coli [3]): 0.25 µg/mL
MIC (Klebsiella pneumoniae [4]): 0.5 µg/mL
MIC (Klebsiella pneumoniae [5]): 0.5 µg/mL
MIC (Acinetobacter baumannii [6]): 4 µg/mL
MIC (Escherichia coli [7]): 0.25 µg/mL
MIC (Pseudomonas aeruginosa [8]): 64 µg/mL
MIC (Pseudomonas aeruginosa [9]): 64 µg/mL
MIC (Klebsiella pneumoniae [10]): 0.25 µg/mL

Cc1nc(-c2ccc(C(C)(C)C)cc2)ncc1C(=O)N[C@@H](CCN)C(=O)N(C)[C@@H]1C(=O)N[C@@H](C)C(=O)N[C@H](NC(=O)CC#N)Cc2ccc(OCCN)c(c2)-c2cc1ccc2OCCN.O=C(O)C(F)(F)F.O=C(O)C(F)(F)F.O=C(O)C(F)(F)F.O=C(O)C(F)(F)F
MIC (Escherichia coli [1]): 64 µg/mL
MIC (Acinetobacter baumannii [2]): > 64 µg/mL
MIC (Escherichia coli [3]): 64 µg/mL
MIC (Klebsiella pneumoniae [4]): 32 µg/mL
MIC (Klebsiella pneumoniae [5]): 64 µg/mL
MIC (Acinetobacter baumannii [6]): > 64 µg/mL
MIC (Escherichia coli [7]): 64 µg/mL
MIC (Pseudomonas aeruginosa [8]): > 64 µg/mL
MIC (Pseudomonas aeruginosa [9]): > 64 µg/mL
MIC (Klebsiella pneumoniae [10]): 64 µg/mL

Cc1nc(-c2ccc(C(C)(C)C)cc2)ncc1C(=O)C(=O)N[C@@H](CCN)C(=O)N(C)[C@@H]1C(=O)N[C@@H](C)C(=O)N[C@H](C(=O)NCC#N)Cc2ccc(OCCN)c(c2)-c2cc1ccc2OCCN.O=C(O)C(F)(F)F.O=C(O)C(F)(F)F.O=C(O)C(F)(F)F.O=C(O)C(F)(F)F
MIC (Escherichia coli [1]): 2 µg/mL
MIC (Acinetobacter baumannii [2]): 4 µg/mL
MIC (Escherichia coli [3]): 2 µg/mL
MIC (Klebsiella pneumoniae [4]): 8 µg/mL
MIC (Klebsiella pneumoniae [5]): 16 µg/mL
MIC (Acinetobacter baumannii [6]): 1 µg/mL
MIC (Escherichia coli [7]): 2 µg/mL
MIC (Pseudomonas aeruginosa [8]): 64 µg/mL
MIC (Pseudomonas aeruginosa [9]): 32 µg/mL
MIC (Klebsiella pneumoniae [10]): 8 µg/mL

Cc1nc(-c2ccc(SSC(C)C)cc2)ncc1C(=O)N[C@@H](CCN)C(=O)N(C)[C@@H]1C(=O)N[C@@H](C)C(=O)N[C@H](C(=O)NCC#N)Cc2ccc(OCCN)c(c2)-c2cc1ccc2OCCN.O=C(O)C(F)(F)F.O=C(O)C(F)(F)F.O=C(O)C(F)(F)F.O=C(O)C(F)(F)F
MIC (Escherichia coli [1]): 0.06 µg/mL
MIC (Acinetobacter baumannii [2]): 0.5 µg/mL
MIC (Escherichia coli [3]): ≤ 0.03 µg/mL
MIC (Klebsiella pneumoniae [4]): 0.06 µg/mL
MIC (Klebsiella pneumoniae [5]): 0.06 µg/mL
MIC (Acinetobacter baumannii [6]): 0.25 µg/mL
MIC (Escherichia coli [7]): ≤ 0.03 µg/mL
MIC (Pseudomonas aeruginosa [8]): 4 µg/mL
MIC (Pseudomonas aeruginosa [9]): 4 µg/mL
MIC (Klebsiella pneumoniae [10]): 0.06 µg/mL

C[C@@H]1NC(=O)[C@@H](N(C)C(=O)[C@H](CCN)NC(=O)c2cnc(-c3ccc(CSSC(C)(C)C)cc3)cc2Cl)c2ccc(OCCN)c(c2)-c2cc(ccc2OCCN)C[C@@H](C(=O)NCC#N)NC1=O.O=C(O)C(F)(F)F.O=C(O)C(F)(F)F.O=C(O)C(F)(F)F.O=C(O)C(F)(F)F
MIC (Escherichia coli [1]): 0.25 µg/mL
MIC (Acinetobacter baumannii [2]): 1 µg/mL
MIC (Escherichia coli [3]): 0.125 µg/mL
MIC (Klebsiella pneumoniae [4]): 0.25 µg/mL
MIC (Klebsiella pneumoniae [5]): 0.5 µg/mL
MIC (Acinetobacter baumannii [6]): 1 µg/mL
MIC (Escherichia coli [7]): ≤ 0.03 µg/mL
MIC (Pseudomonas aeruginosa [8]): 8 µg/mL
MIC (Pseudomonas aeruginosa [9]): 8 µg/mL
MIC (Klebsiella pneumoniae [10]): 0.125 µg/mL

Cc1nc(-c2ccc(CCSSC(C)(C)C)cc2)ncc1C(=O)N[C@@H](CCN)C(=O)N(C)[C@@H]1C(=O)N[C@@H](C)C(=O)N[C@H](C(=O)NCC#N)Cc2ccc(OCCN)c(c2)-c2cc1ccc2OCCN.O=C(O)C(F)(F)F.O=C(O)C(F)(F)F.O=C(O)C(F)(F)F.O=C(O)C(F)(F)F
MIC (Escherichia coli [1]): ≤ 0.03 µg/mL
MIC (Acinetobacter baumannii [2]): 0.25 µg/mL
MIC (Escherichia coli [3]): ≤ 0.03 µg/mL
MIC (Klebsiella pneumoniae [4]): 0.06 µg/mL
MIC (Klebsiella pneumoniae [5]): 0.125 µg/mL
MIC (Acinetobacter baumannii [6]): 0.5 µg/mL
MIC (Escherichia coli [7]): ≤ 0.03 µg/mL
MIC (Pseudomonas aeruginosa [8]): 4 µg/mL
MIC (Pseudomonas aeruginosa [9]): 4 µg/mL
MIC (Klebsiella pneumoniae [10]): ≤ 0.03 µg/mL

Cc1nc(-c2ccc(CSSC(C)(C)C)cc2)ccc1C(=O)N[C@@H](CCN)C(=O)N(C)[C@@H]1C(=O)N[C@@H](C)C(=O)N[C@H](C(=O)NCC#N)Cc2ccc(OCCN)c(c2)-c2cc1ccc2OCCN.O=C(O)C(F)(F)F.O=C(O)C(F)(F)F.O=C(O)C(F)(F)F.O=C(O)C(F)(F)F
MIC (Escherichia coli [1]): 0.25 µg/mL
MIC (Acinetobacter baumannii [2]): 1 µg/mL
MIC (Escherichia coli [3]): 0.125 µg/mL
MIC (Klebsiella pneumoniae [4]): 0.125 µg/mL
MIC (Klebsiella pneumoniae [5]): 0.125 µg/mL
MIC (Acinetobacter baumannii [6]): 1 µg/mL
MIC (Escherichia coli [7]): ≤ 0.03 µg/mL
MIC (Pseudomonas aeruginosa [8]): 8 µg/mL
MIC (Pseudomonas aeruginosa [9]): 8 µg/mL
MIC (Klebsiella pneumoniae [10]): 0.06 µg/mL
